In patent US20110178396A1, “Nicotinamide Derivatives” (CRC FOR BIOMEDICAL IMAGING DEVELOPMENT LTD., priority 2008, published 2011):
Values belong to the molecule of their own block, whether it stands above or below them.

Tests used:
[1] = test system: A375 human amelanotic melanoma tumour; assay: Biodistribution in A375 melanoma tumour bearing mice; format: in vivo, BALB/c nude mice; details: for Organ distribution Intestine / Organ distribution Liver / Organ distribution Spleen / Organ distribution Stomach / Organ distribution Thyroid / Organ distribution Tumour: mean ± S.D.
Description: Animal experiments were performed in compliance with the NHMRC Australian Code of Practice for the care and use of animals for scientific purposes. Female C57BL/6J black and BALB/c nude albino mice of 5 weeks age were obtained from the Animal Resources Centre, Western Australia. B16F0 murine melanoma cells were originally obtained from European Collection of Cell Cultures (UK) and A375 human amelanotic melanoma cells were originally obtained from American Type Culture Collection (USA). Before transplantation, B16F0 and A375 melanoma cells were maintained as a monolayer in RPMI culture medium supplemented with 10% foetal calf serum and antibiotics and passaged with trypsinisation. Early passages were frozen and stored in liquid nitrogen. Cells were passaged to P=10 and then discarded. Frozen aliquots were grown in a monolayer culture to between 80-95% confluence and for transplantation were trypsinised and washed with Ca^2+ and Mg^2+ free phosphate buffered saline (PBS). For inoculation, B16F0 melanoma cells were resuspended in Ca^2+ and Mg^2+ free PBS at 3 or 5×10^6 viable cells per ml and 0.1 ml was subcutaneously injected at the left flank of 6-7 weeks old C57BL/6J mice. Eleven days later, tumours could be palpated in >98% of inoculated animals. A375 human melanoma cells were resuspended at 1×10^7 viablecells per ml and 0.1 ml was injected subcutaneously at the left flank of 6 weeks old BALB/c nude mice and 25-26 days later tumours could be palpated with ˜60% of inoculated animals developing tumours.
Eleven days (B16F0 melanoma) and 25 days (A375 human melanoma) after tumour transplantation, the [^18F]nicotinamides (0.5-1.5 MBq, 100 μl) and [^123I]nicotinamide (0.37-0.74 MBq, 100 μl) derivatives were injected intravenously via the tail vein into mice (15-18 g). Time points of 1, 3, 6, 24, 48, 72 h after injection were chosen for determining the distribution of each compound in various organs and tissues for the iodine-123 labelled compounds and between 15 min and 6 hours (e.g. 15 min, 30 min, 1 h, 2 h, 4 h or 6 h) were chosen for the ^18F-labelled compounds. At defined times post injection, groups of mice (n=5) were weighed, sacrificed by CO2 administration followed by cervical dislocation and dissected. Selected organs were weighed and their radioactivity measured with a γ-counter. The remaining activity in the carcass was also determined in order to obtain the total activity in the mouse at defined time points. The fraction of injected activity (% ID) in the organ was calculated by comparison with suitable dilutions of the injected dose. Then, the radioactivity concentration in the organ (% ID/g) was found by dividing the % ID for each organ by the weight of the organ.

[2] = HPLC metabolite analysis in plasma, tumour, eye and urine; format: in vivo; details: for Percentage Unchanged Tracer: HPLC
[3] = A375 tumour, BALB/c nude mice, 1 h, n = 5
[4] = A375 tumour, BALB/c nude mice, 1 h, mean ± SD, n = 5
[5] = A375 tumour, BALB/c nude mice, 6 h, n = 5
[6] = A375 tumour, BALB/c nude mice, 6 h, mean ± SD, n = 5
[7] = A375 tumour, BALB/c nude mice, 24 h, n = 5
[8] = A375 tumour, BALB/c nude mice, 24 h, mean ± SD, n = 5
[9] = A375 tumour bearing mice, 30 min

tumour standardized uptake value (SUVt) ([1]; A375 tumour, BALB/c nude mice, 1 h): 0.7 ± 0.1
Organ distribution Intestine [1, 3]: 14 ± 2 % ID/organ
Organ distribution Liver [1, 3]: 2.3 ± 0.2 % ID/organ
Organ distribution Spleen [1, 3]: 0.16 ± 0.01 % ID/organ
Organ distribution Stomach [1, 3]: 1.6 ± 0.2 % ID/organ
Organ distribution Thyroid [1, 3]: 0.40 ± 0.07 % ID/organ
Organ distribution Tumour [1, 3]: 0.40 ± 0.16 % ID/organ
Uptake Lung [1, 4]: 1.56 ± 0.2 % ID/g
uptake BLOOD [1, 4]: 1.4 ± 0.2 % ID/g
uptake BRAIN [1, 4]: 0.14 ± 0.02 % ID/g
uptake HEART [1, 4]: 0.8 ± 0.1 % ID/g
uptake KIDNEY [1, 4]: 1.9 ± 0.3 % ID/g
uptake LIVER [1, 4]: 2.2 ± 0.4 % ID/g
uptake TUMOUR [1, 4]: 1.2 ± 0.2 % ID/g
tumour standardized uptake value (SUVt) ([1]; A375 tumour, BALB/c nude mice, 6 h): 0.9 ± 0.2
Organ distribution Intestine [1, 5]: 2 ± 1 % ID/organ
Organ distribution Liver [1, 5]: 0.7 ± 0.2 % ID/organ
Organ distribution Spleen [1, 5]: 0.03 ± 0.01 % ID/organ
Organ distribution Stomach [1, 5]: 0.4 ± 0.1 % ID/organ
Organ distribution Thyroid [1, 5]: 1.0 ± 0.5 % ID/organ
Organ distribution Tumour [1, 5]: 0.13 ± 0.06 % ID/organ
Uptake Lung [1, 6]: 0.4 ± 0.2 % ID/g
uptake BLOOD [1, 6]: 0.5 ± 0.2 % ID/g
uptake BRAIN [1, 6]: 0.03 ± 0.01 % ID/g
uptake HEART [1, 6]: 0.18 ± 0.07 % ID/g
uptake KIDNEY [1, 6]: 0.47 ± 0.17 % ID/g
uptake LIVER [1, 6]: 0.7 ± 0.3 % ID/g
uptake TUMOUR [1, 6]: 0.4 ± 0.1 % ID/g
tumour standardized uptake value (SUVt) ([1]; A375 tumour, BALB/c nude mice, 24 h): 0.3 ± 0.1
Organ distribution Intestine [1, 7]: 0.04 ± 0.01 % ID/organ
Organ distribution Liver [1, 7]: 0.09 ± 0.02 % ID/organ
Organ distribution Spleen [1, 7]: 0.002 % ID/organ
Organ distribution Stomach [1, 7]: 0.01 ± 0.00 % ID/organ
Organ distribution Thyroid [1, 7]: 1.4 ± 0.8 % ID/organ
Organ distribution Tumour [1, 7]: 0.001 % ID/organ
Uptake Lung [1, 8]: 0.015 ± 0.004 % ID/g
uptake BLOOD [1, 8]: 0.013 ± 0.002 % ID/g
uptake BRAIN [1, 8]: 0.002 ± 0.001 % ID/g
uptake HEART [1, 8]: 0.012 ± 0.003 % ID/g
uptake KIDNEY [1, 8]: 0.013 ± 0.002 % ID/g
uptake LIVER [1, 8]: 0.08 ± 0.02 % ID/g
uptake TUMOUR [1, 8]: 0.007 ± 0.002 % ID/g
SMILES: CCN(CC)CCNC(=O)c1cncc(I)c1 [[^123I]11, N-(2-(diethylamino)ethyl)-5-iodonicotinamide]

Percentage Unchanged Tracer ([2]; Eye, 15 minutes): 100%
Percentage Unchanged Tracer ([2]; Eye, 60 minutes): 96%
Percentage Unchanged Tracer ([2]; Eye, 120 minutes): 99%
form of activity taken up in the tumour and eye ([2]; HPLC analysis at various time points): unchanged [^18F]MEL2 and not metabolites
Percentage Unchanged Tracer ([2]; Plasma, 15 minutes): 85%
Percentage Unchanged Tracer ([2]; Plasma, 60 minutes): 79%
Percentage Unchanged Tracer ([2]; Plasma, 120 minutes): 63%
Percentage Unchanged Tracer ([2]; Tumour, 15 minutes): 100%
Percentage Unchanged Tracer ([2]; Tumour, 60 minutes): 100%
Percentage Unchanged Tracer ([2]; Tumour, 120 minutes): 98%
Percentage Unchanged Tracer ([2]; Urine, 60 minutes): 90%
Percentage Unchanged Tracer ([2]; Urine, 120 minutes): 87%
uptake in tissue (tumour and eyes) ([1]; A375 amelanotic melanoma tumour bearing mice, three hour period): low uptake
uptake BLADDER [1, 9]: 8.937 % ID/g
uptake BLOOD [1, 9]: 1.323 % ID/g
uptake BONE [1, 9]: 1.912 % ID/g
uptake BRAIN [1, 9]: 1.831 % ID/g
uptake EYES [1, 9]: 1.704 % ID/g
uptake GIT [1, 9]: 3.432 % ID/g
uptake HEART [1, 9]: 1.898 % ID/g
uptake KIDNEY [1, 9]: 7.103 % ID/g
uptake LIVER [1, 9]: 6.820 % ID/g
uptake LUNGS [1, 9]: 2.836 % ID/g
uptake MUSCLE [1, 9]: 2.125 % ID/g
uptake SKIN [1, 9]: 2.521 % ID/g
uptake SPLEEN [1, 9]: 4.093 % ID/g
uptake STOMACH [1, 9]: 3.795 % ID/g
uptake THYROID [1, 9]: 2.745 % ID/g
uptake TUMOUR [1, 9]: 2.633 % ID/g
uptake URINE [1, 9]: 609.148 % ID/g
uptake BLADDER ([1]; A375 tumour bearing mice, 1 h): 3.717 % ID/g
uptake BLOOD ([1]; A375 tumour bearing mice, 1 h): 0.480 % ID/g
uptake BONE ([1]; A375 tumour bearing mice, 1 h): 0.863 % ID/g
uptake BRAIN ([1]; A375 tumour bearing mice, 1 h): 0.822 % ID/g
uptake EYES ([1]; A375 tumour bearing mice, 1 h): 0.626 % ID/g
uptake GIT ([1]; A375 tumour bearing mice, 1 h): 1.564 % ID/g
uptake HEART ([1]; A375 tumour bearing mice, 1 h): 0.604 % ID/g
uptake KIDNEY ([1]; A375 tumour bearing mice, 1 h): 2.032 % ID/g
uptake LIVER ([1]; A375 tumour bearing mice, 1 h): 2.670 % ID/g
uptake LUNGS ([1]; A375 tumour bearing mice, 1 h): 0.939 % ID/g
uptake MUSCLE ([1]; A375 tumour bearing mice, 1 h): 0.865 % ID/g
uptake SKIN ([1]; A375 tumour bearing mice, 1 h): 1.265 % ID/g
uptake SPLEEN ([1]; A375 tumour bearing mice, 1 h): 1.351 % ID/g
uptake STOMACH ([1]; A375 tumour bearing mice, 1 h): 1.899 % ID/g
uptake THYROID ([1]; A375 tumour bearing mice, 1 h): 1.162 % ID/g
uptake TUMOUR ([1]; A375 tumour bearing mice, 1 h): 0.920 % ID/g
uptake URINE ([1]; A375 tumour bearing mice, 1 h): 185.427 % ID/g
uptake BLADDER ([1]; A375 tumour bearing mice, 2 h): 4.835 % ID/g
uptake BLOOD ([1]; A375 tumour bearing mice, 2 h): 0.171 % ID/g
uptake BONE ([1]; A375 tumour bearing mice, 2 h): 0.548 % ID/g
uptake BRAIN ([1]; A375 tumour bearing mice, 2 h): 0.224 % ID/g
uptake EYES ([1]; A375 tumour bearing mice, 2 h): 0.238 % ID/g
uptake GIT ([1]; A375 tumour bearing mice, 2 h): 0.580 % ID/g
uptake HEART ([1]; A375 tumour bearing mice, 2 h): 0.205 % ID/g
uptake KIDNEY ([1]; A375 tumour bearing mice, 2 h): 0.650 % ID/g
uptake LIVER ([1]; A375 tumour bearing mice, 2 h): 0.985 % ID/g
uptake LUNGS ([1]; A375 tumour bearing mice, 2 h): 0.324 % ID/g
uptake MUSCLE ([1]; A375 tumour bearing mice, 2 h): 0.280 % ID/g
uptake SKIN ([1]; A375 tumour bearing mice, 2 h): 0.290 % ID/g
uptake SPLEEN ([1]; A375 tumour bearing mice, 2 h): 0.434 % ID/g
uptake STOMACH ([1]; A375 tumour bearing mice, 2 h): 0.748 % ID/g
uptake THYROID ([1]; A375 tumour bearing mice, 2 h): 0.356 % ID/g
uptake TUMOUR ([1]; A375 tumour bearing mice, 2 h): 0.254 % ID/g
uptake URINE ([1]; A375 tumour bearing mice, 2 h): 97.912 % ID/g
uptake BLADDER ([1]; A375 tumour bearing mice, 3 h): 0.360 % ID/g
uptake BLOOD ([1]; A375 tumour bearing mice, 3 h): 0.054 % ID/g
uptake BONE ([1]; A375 tumour bearing mice, 3 h): 0.443 % ID/g
uptake BRAIN ([1]; A375 tumour bearing mice, 3 h): 0.073 % ID/g
uptake EYES ([1]; A375 tumour bearing mice, 3 h): 0.110 % ID/g
uptake GIT ([1]; A375 tumour bearing mice, 3 h): 0.227 % ID/g
uptake HEART ([1]; A375 tumour bearing mice, 3 h): 0.045 % ID/g
uptake KIDNEY ([1]; A375 tumour bearing mice, 3 h): 0.197 % ID/g
uptake LIVER ([1]; A375 tumour bearing mice, 3 h): 0.323 % ID/g
uptake LUNGS ([1]; A375 tumour bearing mice, 3 h): 0.099 % ID/g
uptake MUSCLE ([1]; A375 tumour bearing mice, 3 h): 0.108 % ID/g
uptake SKIN ([1]; A375 tumour bearing mice, 3 h): 0.169 % ID/g
uptake SPLEEN ([1]; A375 tumour bearing mice, 3 h): 0.103 % ID/g
uptake STOMACH ([1]; A375 tumour bearing mice, 3 h): 0.302 % ID/g
uptake THYROID ([1]; A375 tumour bearing mice, 3 h): 0.128 % ID/g
uptake TUMOUR ([1]; A375 tumour bearing mice, 3 h): 0.096 % ID/g
uptake URINE ([1]; A375 tumour bearing mice, 3 h): 37.842 % ID/g
SMILES: CCN(CC)CCNC(=O)c1ccc(F)nc1 [[^18F]MEL2, 6-Fluoro-N-[2-(diethylamino)ethyl]nicotinamide]
form excreted in urine ([2]; HPLC analysis, all time points studied): excreted predominately as the unchanged radiotracer
